Data published in article PMC8276018, “The Prostacyclin Analogue, Treprostinil, Used in the Treatment of Pulmonary Arterial Hypertension, is a Potent Antagonist of TREK-1 and TREK-2 Potassium Channels” (Frontiers in Pharmacology, 2021).
Residue numbers refer to the chain shown, from its start.

Assays:
Assay type in all cases: cell-based
TREK-2 [1] = target: T1, TREK-2 (Homo sapiens, UniProt P57789); test: whole-cell patch-clamp, current activation at […]; conditions: read-out: % current enhancement at 1 μM
T1 construct: gene KCNK10; NP_612190.1, wild type, expressed in tsA201 cells
T1 sequence (P57789 1-538): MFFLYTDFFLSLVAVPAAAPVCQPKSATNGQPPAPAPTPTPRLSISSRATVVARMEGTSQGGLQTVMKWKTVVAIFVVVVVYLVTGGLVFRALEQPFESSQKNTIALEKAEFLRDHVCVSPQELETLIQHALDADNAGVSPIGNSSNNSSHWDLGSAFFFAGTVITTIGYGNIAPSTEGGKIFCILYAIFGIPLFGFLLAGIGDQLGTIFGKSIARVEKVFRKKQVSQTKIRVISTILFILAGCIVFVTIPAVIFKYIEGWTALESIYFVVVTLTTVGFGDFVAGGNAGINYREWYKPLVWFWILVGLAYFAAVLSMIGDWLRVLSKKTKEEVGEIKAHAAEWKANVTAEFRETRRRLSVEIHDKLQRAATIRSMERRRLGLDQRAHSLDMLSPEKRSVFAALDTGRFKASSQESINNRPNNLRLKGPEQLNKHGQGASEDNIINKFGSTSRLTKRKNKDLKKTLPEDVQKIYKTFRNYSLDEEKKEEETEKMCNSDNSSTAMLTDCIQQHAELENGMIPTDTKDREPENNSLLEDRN

TREK-1 [2] = target: T2, TREK-1 (Homo sapiens, UniProt O95069); test: whole-cell patch-clamp, current activation at […]; conditions: read-out: % current enhancement at 1 μM
T2 construct: gene KCNK2; NP_055032.1, wild type, expressed in tsA201 cells
T2 sequence (O95069 1-426): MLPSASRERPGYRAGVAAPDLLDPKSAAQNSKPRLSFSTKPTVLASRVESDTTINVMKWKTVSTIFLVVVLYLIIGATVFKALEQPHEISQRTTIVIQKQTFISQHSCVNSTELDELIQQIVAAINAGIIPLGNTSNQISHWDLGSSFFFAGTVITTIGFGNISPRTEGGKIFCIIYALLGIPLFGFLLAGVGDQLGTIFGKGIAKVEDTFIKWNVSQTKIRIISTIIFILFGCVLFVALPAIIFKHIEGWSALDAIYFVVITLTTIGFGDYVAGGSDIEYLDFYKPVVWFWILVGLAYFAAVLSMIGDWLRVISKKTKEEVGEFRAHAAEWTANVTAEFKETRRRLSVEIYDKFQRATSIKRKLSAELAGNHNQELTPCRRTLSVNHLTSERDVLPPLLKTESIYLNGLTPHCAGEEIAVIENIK

TREK-1 [3] = target: T3, TREK-1 (Homo sapiens, UniProt O95069, L304A); test: whole-cell patch-clamp, […]
T3 construct: gene KCNK2; homodimeric mutant channel in tsA201 cells
T3 sequence (O95069 1-411 isoform O95069-2 L289A): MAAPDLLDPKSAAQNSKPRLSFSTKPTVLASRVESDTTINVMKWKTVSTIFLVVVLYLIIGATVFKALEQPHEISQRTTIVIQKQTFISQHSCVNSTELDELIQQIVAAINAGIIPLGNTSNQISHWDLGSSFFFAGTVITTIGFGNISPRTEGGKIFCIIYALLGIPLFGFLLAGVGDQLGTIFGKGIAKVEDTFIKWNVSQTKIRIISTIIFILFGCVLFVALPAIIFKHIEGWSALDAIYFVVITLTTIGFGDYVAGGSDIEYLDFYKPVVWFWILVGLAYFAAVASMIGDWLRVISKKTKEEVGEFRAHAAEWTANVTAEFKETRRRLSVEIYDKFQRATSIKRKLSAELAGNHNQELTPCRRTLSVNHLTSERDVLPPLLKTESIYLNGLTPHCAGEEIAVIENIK

TREK-2 [4] = target: T1, TREK-2; test: whole-cell patch-clamp, concentration-response
TREK-1 [5] = target: T4, TREK-1 (Homo sapiens, UniProt O95069, Y299A); test: whole-cell patch-clamp, […]
T4 construct: gene KCNK2; homodimeric mutant channel in tsA201 cells
T4 sequence (O95069 1-411 isoform O95069-2 Y284A): T3 sequence (O95069 1-411 isoform O95069-2 L289A) with Y284A, A289L

TREK-1 [6] = target: T5, TREK-1 (Homo sapiens, UniProt O95069, L117A); test: whole-cell patch-clamp, […]
T5 construct: gene KCNK2; homodimeric mutant channel in tsA201 cells
T5 sequence (O95069 16-426 L117A): T3 sequence (O95069 1-411 isoform O95069-2 L289A) with M1V, L102A, A289L

TREK-1 [7] = target: T6, TREK-1 (Homo sapiens, UniProt O95069, I95A); test: whole-cell patch-clamp, […]
T6 construct: gene KCNK2; homodimeric mutant channel in tsA201 cells
T6 sequence (O95069 1-411 isoform O95069-2 I80A): T3 sequence (O95069 1-411 isoform O95069-2 L289A) with I80A, A289L

TREK-1 [8] = target: T2, TREK-1; test: whole-cell patch-clamp, concentration-response
TREK-2 [9] = target: T7, TREK-2 (Homo sapiens, UniProt P57789, L315A); test: whole-cell patch-clamp, […]
T7 construct: gene KCNK10; homodimeric mutant channel in tsA201 cells
T7 sequence (P57789 1-538 L315A): T1 sequence (P57789 1-538) with L315A

TREK-1 [10] = target: T8, TREK-1 (Homo sapiens, UniProt O95069, Q91A); test: whole-cell patch-clamp, […]
T8 construct: gene KCNK2; homodimeric mutant channel in tsA201 cells
T8 sequence (O95069 1-411 isoform O95069-2 Q76A): T3 sequence (O95069 1-411 isoform O95069-2 L289A) with Q76A, A289L

| Compound | activation at 1 µM (TREK-2 [1]) [%] | activation at 1 µM (TREK-1 [2]) [%] | inhibition at 1 µM (TREK-1 [3]) [%] | IC50 (TREK-2 [4]) [nM] | inhibition at 1 µM (TREK-1 [5]) [%] | inhibition at 1 µM (TREK-1 [6]) [%] | inhibition at 1 µM (TREK-1 [7]) [%] | IC50 (TREK-1 [8]) [nM] | inhibition at 1 µM (TREK-2 [9]) [%] | inhibition at 1 µM (TREK-1 [10]) [%] |
| --- | --- | --- | --- | --- | --- | --- | --- | --- | --- | --- |
| c1ccc(-c2nn[nH]n2)c(Nc2cccc3c2CCCC3)c1 [BL-1249] | 192 | 144 |  |  |  |  |  |  |  |  |
| CCCCC[C@H](O)CC[C@@H]1[C@H]2Cc3cccc(OCC(=O)O)c3C[C@H]2C[C@H]1O [treprostinil] |  |  | 72 | 40 | 58 | 88 | 78.2 | 30 | 74 | 89 |
